According to patent US20040053292A1, “Proteins and dna sequences underlying these proteins used for treating inflammations” (priority 2000, published 2004):
Peptide text beside a SMILES is read from it. * marks the point of attachment. Cbz = O=C(OCc1ccccc1)*; CH2F = FC*

Test system: proIL-1β
Experiment: in vitro pro-IL1β activation in THP.1 cell lysates incubated at 30° C., Western blotting
Type: biochemical, human
Settings: lysates of LPS-prestimulated THP.1 cells at 30° C.
Experimental: However, THP1 cells express caspase-5 even without LPS activation. FIG. 11c represents the results of experiments which emerge when cell lysates from THP.1 cells which have been prestimulated with LPS were incubated at 30° C. for the periods shown at the top in FIG. 11c. This is because caspase-1 activation is to be observed spontaneously when cytoplasmic cell extracts are heated to 30° C. The activation of caspase-1, caspase-5, caspase-9 and pro-IL1β, followed by Western blotting in the presence or absence of caspase inhibitors zVADfmk (50 μM), YVADfmk (5 μM) and proteasome inhibitor LLnL (50 μM) was measured as a function of time. Cytochrome C (1 ng) was added to activate Apaf-1 and caspase-9. The monoclonal antibodies employed to detect caspase-5 and caspase-9 each recognize the p20 subunit. The four sections of the picture in FIG. 11c depict the respective bands obtained by labeling with anti-caspase-1 antibody, anti-caspase-5 antibody, anti-caspase-9 antibody and anti-IL1β antibody. […]
Addition of the two caspase-1 inhibitors zVADfmk and YVADfmk blocked proIL-1β activation. […] Activation of pro-IL1β, caspase-1 and caspase-5 was measured both in the cell extracts (xt) and in the supernatants (SN). […] The cleavage of […] was detected by an antibody (anti-IL1β*) which specifically recognizes the cleaved form of pro-IL1β, i.e. IL1β*. […]

## COC(=O)C[C@H](NC(=O)[C@H](C)NC(=O)[C@@H](NC(=O)OCc1ccccc1)C(C)C)C(=O)CF [zVADfmk] (Cbz-Val-Ala-Asp(OMe)-CH2F)
zVADfmk 50 μM
  proIL-1β activation: blocked

## YVADfmk
YVADfmk 5 μM
  proIL-1β activation: blocked
